The source of these data is patent US11300568B2, “Methods for the diagnosis and treatment of gastrointestinal stromal tumors” (INSERM (INSTITUT NATIONAL DE LA SANTE ET DE LA RECHERCHE …, priority 2016, dated 2022).

Data set [1] concerns YAP1 activity (YAP-TEAD interaction). The experiment in a line: RT-qPCR of YAP1 and its targets CTGF and CYR61 in LIX1-expressing DF-1 cells. The data set is classed as cell-based, chicken. The settings on record: low density, 1 μM for 20 hours. The protocol: (§1) The chicken DF-1 fibroblast cell line was cultured as previously described. Cell growth in DF-1 cultures was assessed using the Muse Count and Viability reagent following the manufacturer's specifications (Muse Cell Analyzer-Millipore). DF-1 cells were plated on plastic at 2000 cells/cm^2 to obtain low-density cultures and 6000 cells/cm^2 to obtain high-density cultures. Verteporfin (Sellekchem) was used applied to DF-1 cells for 20 hours at a final concentration of 1 μM.
Total RNA was extracted from stomachs or cell cultures with the HighPure RNA Isolation kit (Roche). Reverse transcription was performed using the Verso cDNA synthesis kit (Thermo Scientific) and RT-qPCR was performed using LightCycler technology (Roche Diagnostics). PCR primers were designed using the LightCycler Probe Design 2.0 software. Each sample was analysed in three independent experiments done in triplicate. Expression levels were determined with the LightCycler analysis software (version 3.5) relative to standard curves. Data were represented as the mean level of gene expression relative to the expression of the reference genes UBIQUITIN or GAPDH. Relative mRNA expression was calculated using the 2^−ΔΔCT method.
DF-1 chicken fibroblasts were infected with replication-competent RCAS retroviruses and cultured for 5 days to ensure homogeneous expression. […]

For data set [2], the system named is DF-1 fibroblast cell line. The experiment in a line: Analysis of cell death in DF-1 cultures. The data set is classed as cell-based, chicken. The settings on record: 1 μM for 20 hours. The protocol: as §1
(§2) DF-1 chicken fibroblasts were infected with replication-competent RCAS retroviruses and cultured for 5 days to ensure homogeneous expression. […] This greater expression was associated with higher transcript levels of YAP1 pro-proliferation target genes CTGF and CYR61 and an increase in cell proliferation. […] After 3 days in culture, LIX1-expressing cells had grown faster than control cells. However, although YAP1 expression in LIX1-expressing cells remained higher than in controls, the levels of CTGF and CYR61 transcripts were similar to control levels.

Data set [3] concerns DF-1 fibroblast cell line. The experiment in a line: Cell proliferation of LIX1-expressing DF-1 cultures (Muse Count and Viability). The data set is classed as cell-based, chicken. The settings on record: LIX1-expressing DF-1 cells, low density, 1 μM for 20 hours. How it is done: as §1, §2
For data set [4], the system named is LIX1 transcript levels in GIST882 cells. The data set is described as follows: LIX1 expression by RT-qPCR in GIST882 cells. Type of data set: cell-based, human. The settings on record: 1 μM, 6 h, 24 h and 48 h, vs DMSO control. The protocol:
FIG. 1: LIX1 is expressed in GISTs. (A) LIX1 mRNA expression and regulation in the GIST882 cell line. (a) Semi-quantitative RT-PCR analysis of LIX1 transcript level in 131N1 (astrocytoma cells), PC3 (prostate cancer cells), HeLa, and GIST882 cells. Loading was verified by glyceraldehyde-3-phosphate dehydrogenase (GAPDH) expression. (b) Analysis of LIX1 expression by RT-qPCR in GIST882 cells upon incubation with DMSO alone (control) or with 7.5 μM of Akti (inhibitor of AKT) for 6 h, 24 h and 48 h. Normalized expression levels were converted to fold changes. *P<0.05; **P<0.01. (c) Analysis of LIX1 expression by RT-qPCR in GIST882 cells upon incubation with DMSO alone (control) or with 1 μM of imatinib mesylate (KIT inhibitor) for 6 h, 24 h and 48 h. […] (b) Relapse-free survival from initial imatinib mesylate treatment in group 1 presenting low level of LIX1 compared with group 2 presenting high level of LIX1 individuals with GIST, assessed in a univariate analysis using the Kaplan-Meier method. […]
Total RNA was extracted from stomachs or cell cultures with the HighPure RNA Isolation kit (Roche). […] Each sample was analysed in three independent experiments done in triplicate. Expression levels were determined with the LightCycler analysis software (version 3.5) relative to standard curves. […] Relative mRNA expression was calculated using the 2^−ΔΔCT method. […]

The subject of data set [5] is LIX1 expression in GIST-T1 cells. The data set is described as follows: LIX1 expression by RT-qPCR in GIST-T1 cells. Type of data set: cell-based, human. The settings on record: 0.5 μM, 6 h, 24 h and 48 h, vs DMSO control. How it is done: Analysis of LIX1 expression by RT-qPCR in GIST-T1 cells upon incubation with DMSO alone (control) or with 0.5 μM of imatinib mesylate (KIT inhibitor) for 6 h, 24 h and 48 h. Normalized expression levels were converted to fold changes. **P<0.01; ***P<0.001.
Resistance to tyrosine kinase inhibitors such as imatinib is increasing in GISTs and complete remissions are rare, highlighting the necessity to identify additional therapeutic targets. The inventors investigated the role of LIX1 in secondary imatinib-resistant GISTs using GIST-T1 cells, a primary gastric GIST cell line sensitive to Imatinib treatment that harbors hetereygous deletion in KIT gene with constitutive KIT signaling pathway.

For the next data set, the system named is GIST. The settings on record: after 5 years; increased from 30% after 1 year; cited from earlier work.

Counter-ions that a name gives are not always drawn.

Consider verteporfin, for which, in data set [1], the YAP1 expression entry is recorded as “upregulation of YAP1 was still observed”; the “levels of CTGF and CYR61 transcripts” value is reported as “comparable with control cells”. For the same compound, in data set [2], the “cytotoxic effect (cell death)” value was “not due to a cytotoxic effect”. In data set [3], the rates of proliferation entry is “comparable with control cells”.

On to `Cc1ccc(NC(=O)c2ccc(CN3CCN(C)CC3)cc2)cc1Nc1nccc(-c2cccnc2)n1` [imatinib mesylate], for which, in data set [4], the LIX1 transcript levels entry was “strong and efficient inhibition of LIX1 transcript levels”. Moreover, the LIX1 expression entry in data set [5] is listed as “upregulated”. Further, the GIST patient survival in the data set with GIST was 50%.
